# Results taken from ChEMBL document CHEMBL1201862, “PubChem BioAssay data set” (2004).
# Several values for one entry are separate records, joined by “and”; a condition that tells them apart may be missing. Equal values may be shown once. Activity calls are given as the source filed them.
# How the values were obtained:
# [1] = biological target: T1, Neuropeptide Y receptor type 2 (Homo sapiens, UniProt P49146); assay: Fluorescence-based counterscreen for agonists of NPY-Y1: cell-based high-throughput dose response assay for agonists of NPY-Y2.; type: functional
# T1 sequence (P49146 whole entry): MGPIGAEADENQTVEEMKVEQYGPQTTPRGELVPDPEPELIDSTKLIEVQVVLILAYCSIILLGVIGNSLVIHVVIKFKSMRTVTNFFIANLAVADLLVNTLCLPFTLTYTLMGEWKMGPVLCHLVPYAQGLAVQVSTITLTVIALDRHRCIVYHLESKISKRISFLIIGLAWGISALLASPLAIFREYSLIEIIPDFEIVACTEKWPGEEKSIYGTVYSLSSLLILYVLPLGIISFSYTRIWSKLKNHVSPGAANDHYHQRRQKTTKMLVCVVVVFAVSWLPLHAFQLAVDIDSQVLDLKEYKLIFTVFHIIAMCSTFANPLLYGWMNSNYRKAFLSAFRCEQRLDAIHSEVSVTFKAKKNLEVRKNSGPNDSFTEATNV
# [2] = biological target: T2, Neuropeptide Y receptor type 1 (Homo sapiens, UniProt P25929); assay: Fluorescence-based dose response cell-based high-throughput screening assay for agonists of NPY-Y1. [Related pubchem assays: 1697 (Screening assay (NPY-Y1 agonists).), 1359 (Screening assay (NPY-Y2 potentiators or agonists).), 1304 (Screening assay (NPY-Y1 potentiators or agonists).), 1704 (Screening assay (CNGC inhibitors).), 1791 (Summary AID.)]; type: functional
# T2 sequence (P25929 whole entry): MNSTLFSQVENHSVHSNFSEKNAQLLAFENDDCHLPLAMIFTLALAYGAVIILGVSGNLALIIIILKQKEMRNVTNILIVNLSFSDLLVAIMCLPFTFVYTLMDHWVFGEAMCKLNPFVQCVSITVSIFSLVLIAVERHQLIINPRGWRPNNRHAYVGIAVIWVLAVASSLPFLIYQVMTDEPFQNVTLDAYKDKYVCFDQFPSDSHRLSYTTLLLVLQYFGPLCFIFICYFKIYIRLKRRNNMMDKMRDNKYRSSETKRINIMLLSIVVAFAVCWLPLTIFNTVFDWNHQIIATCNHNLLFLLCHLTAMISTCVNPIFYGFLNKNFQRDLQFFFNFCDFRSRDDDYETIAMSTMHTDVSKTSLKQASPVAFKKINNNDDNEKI
# HEK293 = assay: Fluorescence-based counterscreen for potentiators or agonists of NPY-Y1: cell-based high-throughput dose response assay for inhibitors of cyclic nucleotide gated ion channel (CNGC) activity. In this assay, the parental HEK293 cell line transfected with a cyclic-nucleotide gated ion channel (CNGC)-based cAMP sensor is used to measure inhibition of isoproterenol-induced CNGC …; type: functional; settings: Homo sapiens
# Estrogen receptor = biological target: T3, Estrogen receptor (Homo sapiens, UniProt P03372); assay: ERα coactivator recruitment enhancers – biochemical, TR-FRET, ERα LBD, dose response (AID 737)
# T3 sequence (P03372 whole entry): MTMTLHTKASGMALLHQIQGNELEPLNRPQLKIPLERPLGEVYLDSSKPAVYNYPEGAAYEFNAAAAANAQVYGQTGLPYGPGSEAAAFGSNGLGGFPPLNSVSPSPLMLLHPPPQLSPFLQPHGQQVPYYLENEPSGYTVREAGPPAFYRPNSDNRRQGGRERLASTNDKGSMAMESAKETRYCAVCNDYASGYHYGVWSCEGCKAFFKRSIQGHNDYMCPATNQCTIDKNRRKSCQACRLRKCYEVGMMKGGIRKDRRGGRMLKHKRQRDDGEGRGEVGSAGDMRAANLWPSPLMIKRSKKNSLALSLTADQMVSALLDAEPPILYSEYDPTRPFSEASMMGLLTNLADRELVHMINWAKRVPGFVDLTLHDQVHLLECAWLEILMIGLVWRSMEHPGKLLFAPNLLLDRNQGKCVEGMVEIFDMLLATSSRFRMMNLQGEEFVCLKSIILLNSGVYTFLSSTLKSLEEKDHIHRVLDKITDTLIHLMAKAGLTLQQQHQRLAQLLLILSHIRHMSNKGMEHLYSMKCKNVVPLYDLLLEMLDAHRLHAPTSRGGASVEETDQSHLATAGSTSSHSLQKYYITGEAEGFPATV
# DNA topoisomerase = DNA topoisomerase (Yersinia pestis, UniProt A0A2S9PM60); assay: Yersinia topoisomerase I cleavage product accumulation – biochemical, cherry-pick, dose response (AID 588525)
# [3] = biological target: Mothers against decapentaplegic homolog 3 (Homo sapiens, UniProt P84022); assay: blockers of Smad3 complex formation in lysate – cell lysate, secondary confirmation, chemiluminescent ELISA, HEK293 lysate, dose response (AID 1058); type: functional
# [4] = biological target: Cyclin-dependent kinase 5/CDK5 activator 1 (Homo sapiens, UniProt Q00535); assay: blockade of human CDK5 activity – biochemical, cherry-picked samples, set 2, dose response (AID 504545)
# [5] = biological target: Heat shock protein HSP 90-alpha (Homo sapiens, UniProt P07900); type: functional, organism-based
# [6] = M. tuberculosis H37Rv growth inhibitors, H37Rv strain (AID 1626); type: functional
# cells = type: functional
# [7] = antiviral protection against BTV-induced cell death – arbovirus, BSR cells, confirmation (AID 1250); type: functional;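 further: protection from viral cytopathic effect measured as cell viability by ATP luminescence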
# Heat shock protein HSP90 = Heat shock protein HSP90 (Homo sapiens, UniProt P07900+P08238); assay: Hsp90 blockade concentration-response – dose response (AID 712); type: functional
# [8] = biological target: Voltage-gated inwardly rectifying potassium channel KCNH2 (Homo sapiens, UniProt Q12809); settings: Potency;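 further: confirmatory quantitative high-throughput screen measuring inhibition of hERG channel activity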
# [9] = biological target: Protein-tyrosine kinase 2-beta (Homo sapiens, UniProt Q14289);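 further: potency of inhibitors of PYK2 kinase phosphorylation of poly-GT substrate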
# Sequence of Protein-tyrosine kinase 2-beta (Q14289 whole entry): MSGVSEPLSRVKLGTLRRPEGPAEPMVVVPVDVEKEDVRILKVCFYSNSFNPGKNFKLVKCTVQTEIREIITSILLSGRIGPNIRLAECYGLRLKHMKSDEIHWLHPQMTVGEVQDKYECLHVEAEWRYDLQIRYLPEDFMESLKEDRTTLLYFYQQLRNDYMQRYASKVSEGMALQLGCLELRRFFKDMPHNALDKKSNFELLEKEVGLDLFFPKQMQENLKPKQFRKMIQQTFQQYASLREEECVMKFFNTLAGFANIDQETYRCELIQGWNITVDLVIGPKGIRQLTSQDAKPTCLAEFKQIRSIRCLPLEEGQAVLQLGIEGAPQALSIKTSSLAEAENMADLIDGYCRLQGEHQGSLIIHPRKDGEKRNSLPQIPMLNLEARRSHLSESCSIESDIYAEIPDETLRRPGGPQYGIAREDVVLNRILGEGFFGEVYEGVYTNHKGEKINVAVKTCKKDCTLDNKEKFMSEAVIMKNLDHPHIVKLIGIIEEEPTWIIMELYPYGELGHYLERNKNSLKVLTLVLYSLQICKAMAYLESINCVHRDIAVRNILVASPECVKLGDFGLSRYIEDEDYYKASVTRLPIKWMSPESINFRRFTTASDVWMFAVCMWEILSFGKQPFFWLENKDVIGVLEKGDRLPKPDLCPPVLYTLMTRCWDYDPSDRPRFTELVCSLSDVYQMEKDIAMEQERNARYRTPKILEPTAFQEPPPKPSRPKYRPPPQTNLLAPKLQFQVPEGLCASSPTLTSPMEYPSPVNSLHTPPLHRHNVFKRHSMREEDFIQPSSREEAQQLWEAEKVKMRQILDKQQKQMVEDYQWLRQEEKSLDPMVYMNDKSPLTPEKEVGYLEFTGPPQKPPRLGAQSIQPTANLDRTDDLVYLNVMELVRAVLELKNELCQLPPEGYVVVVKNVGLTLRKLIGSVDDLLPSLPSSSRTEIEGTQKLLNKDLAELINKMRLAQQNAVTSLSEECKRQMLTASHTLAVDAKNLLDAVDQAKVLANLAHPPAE
# Sequence of Voltage-gated inwardly rectifying potassium channel KCNH2 (Q12809 whole entry): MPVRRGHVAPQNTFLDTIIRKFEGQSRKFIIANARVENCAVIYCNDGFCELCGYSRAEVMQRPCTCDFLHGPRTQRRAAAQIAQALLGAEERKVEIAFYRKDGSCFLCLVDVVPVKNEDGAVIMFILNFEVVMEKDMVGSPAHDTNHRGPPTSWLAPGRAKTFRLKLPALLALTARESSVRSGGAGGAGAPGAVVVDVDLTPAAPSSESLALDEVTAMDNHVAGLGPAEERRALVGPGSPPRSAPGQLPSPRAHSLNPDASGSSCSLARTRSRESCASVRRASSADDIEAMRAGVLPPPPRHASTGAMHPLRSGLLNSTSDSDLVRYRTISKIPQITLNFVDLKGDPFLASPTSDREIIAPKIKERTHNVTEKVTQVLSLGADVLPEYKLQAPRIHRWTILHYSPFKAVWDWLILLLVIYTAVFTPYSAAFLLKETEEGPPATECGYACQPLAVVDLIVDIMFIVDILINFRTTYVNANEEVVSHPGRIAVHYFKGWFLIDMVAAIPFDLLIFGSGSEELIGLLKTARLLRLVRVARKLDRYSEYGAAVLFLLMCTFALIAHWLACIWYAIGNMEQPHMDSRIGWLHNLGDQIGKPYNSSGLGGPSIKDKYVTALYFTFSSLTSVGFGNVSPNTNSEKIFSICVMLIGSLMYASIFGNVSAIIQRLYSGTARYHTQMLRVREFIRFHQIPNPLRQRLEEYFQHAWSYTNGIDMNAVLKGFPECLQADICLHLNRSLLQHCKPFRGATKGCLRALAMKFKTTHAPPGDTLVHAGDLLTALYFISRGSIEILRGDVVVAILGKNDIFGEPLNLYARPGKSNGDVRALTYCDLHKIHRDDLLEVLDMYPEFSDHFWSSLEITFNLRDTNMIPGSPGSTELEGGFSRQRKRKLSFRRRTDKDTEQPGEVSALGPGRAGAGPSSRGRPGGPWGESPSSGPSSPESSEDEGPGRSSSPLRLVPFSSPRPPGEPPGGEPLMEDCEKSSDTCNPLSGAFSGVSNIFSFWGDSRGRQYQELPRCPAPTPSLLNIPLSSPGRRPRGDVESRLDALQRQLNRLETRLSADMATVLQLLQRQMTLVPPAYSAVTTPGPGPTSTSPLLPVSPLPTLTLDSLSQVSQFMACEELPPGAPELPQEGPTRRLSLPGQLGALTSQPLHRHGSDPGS
# Sequence of Cyclin-dependent kinase 5/CDK5 activator 1 (Q00535 whole entry): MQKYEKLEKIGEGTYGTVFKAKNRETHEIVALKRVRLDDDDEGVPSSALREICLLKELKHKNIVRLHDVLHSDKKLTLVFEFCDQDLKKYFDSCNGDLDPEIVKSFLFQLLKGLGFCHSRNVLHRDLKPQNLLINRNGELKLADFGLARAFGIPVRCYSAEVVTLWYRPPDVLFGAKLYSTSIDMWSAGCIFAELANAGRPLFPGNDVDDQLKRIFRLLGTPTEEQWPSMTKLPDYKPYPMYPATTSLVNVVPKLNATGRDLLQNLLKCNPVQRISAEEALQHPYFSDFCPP
# Sequence of Cyclin-dependent kinase 5/CDK5 activator 1 (Q15078 whole entry, further chain): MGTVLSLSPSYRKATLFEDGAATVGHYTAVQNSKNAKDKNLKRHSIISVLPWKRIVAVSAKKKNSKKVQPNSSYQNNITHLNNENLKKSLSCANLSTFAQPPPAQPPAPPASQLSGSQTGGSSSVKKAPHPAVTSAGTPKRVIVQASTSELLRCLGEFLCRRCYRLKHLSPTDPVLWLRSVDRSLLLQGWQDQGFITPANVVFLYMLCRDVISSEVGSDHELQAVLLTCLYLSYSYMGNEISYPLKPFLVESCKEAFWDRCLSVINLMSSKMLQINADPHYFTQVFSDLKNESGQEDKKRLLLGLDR
# Sequence of DNA topoisomerase (A0A2S9PM60 whole entry): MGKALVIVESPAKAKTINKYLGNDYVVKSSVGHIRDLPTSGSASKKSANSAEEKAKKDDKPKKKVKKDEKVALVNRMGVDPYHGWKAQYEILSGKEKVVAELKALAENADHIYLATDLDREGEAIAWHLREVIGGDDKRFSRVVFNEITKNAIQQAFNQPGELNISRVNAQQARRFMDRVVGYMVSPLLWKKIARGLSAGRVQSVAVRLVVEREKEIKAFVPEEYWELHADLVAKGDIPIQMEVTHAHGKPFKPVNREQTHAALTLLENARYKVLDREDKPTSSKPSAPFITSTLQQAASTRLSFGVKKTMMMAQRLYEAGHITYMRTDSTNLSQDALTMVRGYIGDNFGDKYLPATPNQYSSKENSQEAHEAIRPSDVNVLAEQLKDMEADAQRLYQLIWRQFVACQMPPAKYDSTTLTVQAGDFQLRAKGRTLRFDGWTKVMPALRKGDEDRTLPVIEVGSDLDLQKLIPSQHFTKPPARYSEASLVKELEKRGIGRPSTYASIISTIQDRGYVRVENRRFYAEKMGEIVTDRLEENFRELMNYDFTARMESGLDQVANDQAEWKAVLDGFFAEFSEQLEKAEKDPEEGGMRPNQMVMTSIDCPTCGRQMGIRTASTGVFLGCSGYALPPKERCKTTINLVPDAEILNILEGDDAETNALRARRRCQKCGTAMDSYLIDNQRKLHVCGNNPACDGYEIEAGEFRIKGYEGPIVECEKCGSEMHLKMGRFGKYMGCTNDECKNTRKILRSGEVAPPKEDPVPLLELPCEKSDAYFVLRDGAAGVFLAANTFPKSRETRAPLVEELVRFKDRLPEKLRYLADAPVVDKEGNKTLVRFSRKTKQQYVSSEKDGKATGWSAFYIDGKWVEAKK
# Sequence of Mothers against decapentaplegic homolog 3 (P84022 whole entry): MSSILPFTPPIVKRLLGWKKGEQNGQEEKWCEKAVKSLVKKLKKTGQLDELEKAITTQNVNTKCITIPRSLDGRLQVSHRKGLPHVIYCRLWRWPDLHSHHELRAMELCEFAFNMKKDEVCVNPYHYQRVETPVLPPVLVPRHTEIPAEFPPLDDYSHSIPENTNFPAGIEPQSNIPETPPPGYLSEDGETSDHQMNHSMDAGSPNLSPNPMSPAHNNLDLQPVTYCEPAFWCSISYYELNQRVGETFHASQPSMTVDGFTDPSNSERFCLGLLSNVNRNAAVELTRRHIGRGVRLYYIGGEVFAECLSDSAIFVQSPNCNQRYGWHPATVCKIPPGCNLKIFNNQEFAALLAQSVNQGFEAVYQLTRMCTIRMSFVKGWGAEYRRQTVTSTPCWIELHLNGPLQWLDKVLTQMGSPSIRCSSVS
compound,measurement,setting,value
CSc1nc(-c2ccco2)nn1C(=O)c1ccccc1Cl,EC50,[1],> 35.4 µM (not active)
same,EC50,[2],> 35.4 µM (not active)
same,IC50,HEK293,> 35.4 µM (not active)
CCc1ccc(Nc2nc(N)nc(CSc3nnnn3-c3ccccc3)n2)cc1,EC50,Estrogen receptor,4.76 µM (active)
same,AC50,DNA topoisomerase,6.16 µM (active)
COc1ccc(C(c2cc3c(cc2O)OCO3)N2CCCCC2)cc1OC (centres undefined),IC50,[3],> 40 µM (not active)
O=[N+]([O-])c1ccc2c(c1)-c1ccccc1C2=NO,AC50,[4],8.4 µM (active)
same,AC50,[5],3.93 µM (active)
O=C(Nc1nc2ccccc2[nH]1)c1cccc([N+](=O)[O-])c1,IC50,[6],> 100 µM (active)
same,IC50,cells,4.91 µM (active)
CC(=O)/C(=N/Nc1cccc(Cl)c1)Sc1nnc(C(O)c2ccccc2)n1-c1ccccc1 (centres undefined),IC50,[7],37.7 µM (active)
C[C@H]1CCCC(=O)CCC/C=C/c2cc(O)cc(O)c2C(=O)O1 [ZEARALENONE],IC50,Heat shock protein HSP90,2.402 µM
same,AC50,[8],39.8 µM (inconclusive) and 56.2 µM (inconclusive)
same,IC50,[9],6.92 µM (active)
